From article PMC12977469, “Ligand binding drives proteolysis of the SmcR master transcription factor and controls quorum sensing-state transitions in Vibrio species” (mBio, 2026)
pKd: −log10 of the molar value.

Target: T1, SmcR (Vibrio vulnificus, UniProt Q9L8G8)
T1 construct: full-length, His-tagged SmcR (homodimer); residues 1–15 not modeled in the crystal structure
Test: X-ray crystal structure ([…] Å) and isothermal titration calorimetry with purified protein; SAXS
Assay type: binding

T1 sequence (Q9L8G8 entry or part of it): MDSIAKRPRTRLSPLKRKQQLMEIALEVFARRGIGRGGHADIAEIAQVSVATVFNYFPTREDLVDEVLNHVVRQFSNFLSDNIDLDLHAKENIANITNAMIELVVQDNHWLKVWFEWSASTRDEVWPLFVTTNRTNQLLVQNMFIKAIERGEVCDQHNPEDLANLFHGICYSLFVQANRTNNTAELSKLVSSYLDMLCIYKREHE

O=S(=O)(c1cccs1)n1ccc(-c2ccccc2)n1 [PTSP, 3-phenyl-1-(thiophen-2-ylsulfonyl)-1H-pyrazole] gave a pKd of about 6.00.
